“And” between values parts separate entries of the source, which are not always exact repeats. Equal entries are not always repeated.
What was measured:
Assay type in all cases: cell-based, human
[1] = test system: fibroblasts from patients with VLCAD deficiency, non-cardiac milder phenotype; test: Propionylcarnitine from oxidation of odd-carbon fatty acids in VLCAD (non-cardiac) fibroblasts; conditions: VLCAD non-cardiac fibroblasts, one line per patient, 72 hours incubation
Description: (§1) Fibroblasts obtained from patients with inherited defects of mitochondrial fat oxidation were cultured in the presence of omega deuterated odd-carbon numbered fatty acids, as described in Roe, C. R., Sweetman, L., Roe, D. S., David, F., Brunengraber, H., “Effective Dietary Treatment of Cardiomyopathy & Rhabdomyolysis in Long-Chain Fat Oxidation Disorders using an Anaplerotic Odd-Chain Triglyceride,” J. Clin. Invest. 110 (2): 259-269 (2002).
(§2) The data in Table 1 represents testing of cultured fibroblasts derived from ten patients afflicted with Very-long-chain acyl-CoA dehydrogenase (VLCAD) deficiency (six patients with the severe cardiac form and four with the non-cardiac milder phenotype), two patients with Mitochondrial Trifunctional Protein (MTP) deficiency, five patients having L-3-hydroxy-acyl-CoA dehydrogenase (LCHAD) deficiency and three patients with Short-chain acyl-CoA dehydrogenase (SCAD) deficiency.

[2] = test system: fibroblasts from patients with L-3-hydroxy-acyl-CoA dehydrogenase (LCHAD) deficiency; test: Propionylcarnitine from oxidation of odd-carbon fatty acids in LCHAD fibroblasts; conditions: LCHAD fibroblasts, one line per patient, 72 hours incubation
Description: as §1, §2

[3] = test system: control / normal fibroblasts; test: Fate of odd-carbon fatty acids in control (normal) fibroblasts; set-up: *C3 acylcarnitine / *C5 acylcarnitine / *C7 acylcarnitine / *C9 acylcarnitine / *C11 acylcarnitine / *C13 acylcarnitine / *C15 acylcarnitine: unit not given here
Description: Fibroblasts obtained from patients with inherited defects of mitochondrial fat oxidation were cultured in the presence of omega deuterated odd-carbon numbered fatty acids, as described in Roe, C. R., Sweetman, L., Roe, D. S., David, F., Brunengraber, H., “Effective Dietary Treatment of Cardiomyopathy & Rhabdomyolysis in Long-Chain Fat Oxidation Disorders using an Anaplerotic Odd-Chain Triglyceride,” J. Clin. Invest. 110 (2): 259-269 (2002). […]

[4] = test system: fibroblasts from MCAD heterozygote (carrier); test: Fate of odd-carbon fatty acids in MCAD carrier fibroblasts; set-up: unit not given here
Description: as §1
Fibroblasts from four patients with MCAD deficiency and one heterozygote (carrier) indicate that odd-carbon fatty acids containing more than seven carbons can not be effectively used in that disease. […] That any C3 was produced is presumably due to overlapping

[5] = test system: fibroblasts from patients with inherited defects of mitochondrial fat oxidation; test: Propionylcarnitine production in all fat-oxidation-defective fibroblast cell lines (comparison in words); conditions: all VLCAD, MTP, LCHAD, SCAD cell lines; C5 versus C7; C15 versus C5 or C7
Description: as §1, §2

[6] = test system: fibroblasts from patients with Mitochondrial Trifunctional Protein (MTP) deficiency; test: Propionylcarnitine from oxidation of odd-carbon fatty acids in MTP fibroblasts; conditions: MTP fibroblasts, one line per patient, 72 hours incubation
Description: as §1, §2

[7] = test system: fibroblasts from patients with Short-chain acyl-CoA dehydrogenase (SCAD) deficiency; test: Propionylcarnitine from oxidation of odd-carbon fatty acids in SCAD fibroblasts; conditions: SCAD fibroblasts, one line per patient, 72 hours incubation
Description: as §1, §2

[8] = test system: fibroblasts from patients with Very-long-chain acyl-CoA dehydrogenase (VLCAD) deficiency, severe cardiac form; test: Propionylcarnitine from oxidation of odd-carbon fatty acids in VLCAD (cardiac) fibroblasts; conditions: VLCAD cardiac fibroblasts, one line per patient, 72 hours incubation
Description: as §1, §2

[9] = test system: MCAD-deficient fibroblasts; test: Fate of odd-carbon fatty acids in MCAD-deficient fibroblasts; set-up: *C3 acylcarnitine / *C5 acylcarnitine / *C7 acylcarnitine / *C9 acylcarnitine / *C11 acylcarnitine / *C13 acylcarnitine / *C15 acylcarnitine: unit not given here; conditions: for *C3 acylcarnitine / *C5 acylcarnitine / *C7 acylcarnitine / *C9 acylcarnitine / *C11 acylcarnitine / *C13 acylcarnitine / *C15 acylcarnitine: MCAD fibroblasts, N 4
Description: as §1
Fibroblasts from four patients with MCAD deficiency and one heterozygote (carrier) indicate that odd-carbon fatty acids containing more than seven carbons can not be effectively used in that disease. […]

CCCCCCCCCCCCCCC(=O)O [C15, n-pentadecanoic acid]
Propionylcarnitine from oxidation of fatty acid [1]: 16.4 nmol/mg Protein/72 hours and 19.2 nmol/mg Protein/72 hours and 36.0 nmol/mg Protein/72 hours and 11.5 nmol/mg Protein/72 hours | Propionylcarnitine from oxidation of fatty acid [2]: 34.6 nmol/mg Protein/72 hours and 15.1 nmol/mg Protein/72 hours and 15.9 nmol/mg Protein/72 hours and 6.9 nmol/mg Protein/72 hours and 13.9 nmol/mg Protein/72 hours | *C3 acylcarnitine ([3]; CONTROL MEAN, N = 4): 46.8 | *C5 acylcarnitine ([3]; CONTROL MEAN, N = 4): 2.8 | *C7 acylcarnitine ([3]; CONTROL MEAN, N = 4): 0.8 | *C9 acylcarnitine ([3]; CONTROL MEAN, N = 4): 2.2 | *C11 acylcarnitine ([3]; CONTROL MEAN, N = 4): 0.9 | *C13 acylcarnitine ([3]; CONTROL MEAN, N = 4): 0.7 | *C15 acylcarnitine ([3]; CONTROL MEAN, N = 4): 3.8 | Propionylcarnitine from odd carbon precursor ([3]; NORMAL fibroblasts): 46.8 nmol/mg Protein/72 hours | Boosting the production of propionyl-CoA (in words) ([3]; normal cells, compared with C7 or C5): more effective in normal cells | *C3 acylcarnitine [4]: 33.5 | *C5 acylcarnitine [4]: 1.7 | *C7 acylcarnitine [4]: 0.6 | *C9 acylcarnitine [4]: 1.7 | *C11 acylcarnitine [4]: 0.5 | *C13 acylcarnitine [4]: 0.2 | *C15 acylcarnitine [4]: 1.9 | Quantity of propionylcarnitine produced, compared with the other odd-carbon fatty acids [5]: less propionylcamitine | Propionylcarnitine from oxidation of fatty acid [6]: 31.4 nmol/mg Protein/72 hours and 46.5 nmol/mg Protein/72 hours | Propionylcarnitine from oxidation of fatty acid [7]: 56.7 nmol/mg Protein/72 hours and 30.3 nmol/mg Protein/72 hours and 37.6 nmol/mg Protein/72 hours | Propionylcarnitine from oxidation of fatty acid [8]: 11.7 nmol/mg Protein/72 hours and 5.3 nmol/mg Protein/72 hours and 21.6 nmol/mg Protein/72 hours and 8.0 nmol/mg Protein/72 hours and 6.6 nmol/mg Protein/72 hours and 9.9 nmol/mg Protein/72 hours | *C3 acylcarnitine ([9]; Maximum): 19.6 | *C5 acylcarnitine ([9]; Maximum): 1.6 | *C7 acylcarnitine ([9]; Maximum): 9.9 | *C9 acylcarnitine ([9]; Maximum): 17.5 | *C11 acylcarnitine ([9]; Maximum): 1.0 | *C13 acylcarnitine ([9]; Maximum): 0.9 | *C15 acylcarnitine ([9]; Maximum): 4.7 | *C3 acylcarnitine ([9]; Mean): 9.8 | *C5 acylcarnitine ([9]; Mean): 1.2 | *C7 acylcarnitine ([9]; Mean): 6.5 | *C9 acylcarnitine ([9]; Mean): 10.9 | *C11 acylcarnitine ([9]; Mean): 0.7 | *C13 acylcarnitine ([9]; Mean): 0.4 | *C15 acylcarnitine ([9]; Mean): 2.6 | *C3 acylcarnitine ([9]; Minimum): 3.1 | *C5 acylcarnitine ([9]; Minimum): 0.5 | *C7 acylcarnitine ([9]; Minimum): 3.5 | *C9 acylcarnitine ([9]; Minimum): 4.3 | *C11 acylcarnitine ([9]; Minimum): 0.3 | *C13 acylcarnitine ([9]; Minimum): 0.0 | *C15 acylcarnitine ([9]; Minimum): 1.0 | Propionylcarnitine from odd carbon precursor ([9]; MCAD-1 fibroblast cell line): 6.9 nmol/mg Protein/72 hours | Propionylcarnitine from odd carbon precursor ([9]; MCAD-2 fibroblast cell line): 19.6 nmol/mg Protein/72 hours | Oxidation of the fatty acid in MCAD deficient fibroblasts (in words) ([9]; four MCAD patients' fibroblasts): a block in oxidation at C9 & C7

— patent US8399515B2, “Five and fifteen carbon fatty acids for treating metabolic disorders and as nutritional supplements” (Baylor Research Institute, priority 2003, dated 2013)
